{"source": "patent US20140193827A1", "about": "(TEVA PHARMACEUTICAL INDUSTRIES, LTD., priority 2013, published 2014)", "key": {"[1]": {"test_system": "GA-primed murine splenocytes", "assay": "Microarray gene expression profiling of GA-primed splenocytes reactivated ex vivo (t-test / 1-way ANOVA vs. Medium or GA-RS)", "assay_type": "cell-based, mouse", "description": "All experimental procedures conformed to accepted ethical standards for use of animals in research and were in accordance with Committee for the Care and Use of Experimental Animals guidelines and approved by the Teva Institutional Animal Care and Use Committee. For these experiments, we purchased 8- to 12-week old female (Balb/c×SJL)F1 mice (Harlan, Israel). […] Single cell suspension was prepared. […] Splenocytes (125 μL 10×10^6 SPL cell/mL suspension) were added to the activator solutions and incubated for 24 hours at 37° C. Then, cells were washed, diluted with RNA stabilization solution (RNAlater® solution, Applied Biosystems), and stored at 4° C. […] RNA quality was assessed by the absorbance ratio at 260/280 on and gel electrophoresis (Experion™, Bio-Rad, Hercules, Calif.). […] Microarray hybridization, array scanning, and initial preprocessing were performed by BioRap (Technion, Haifa, Israel). […] The subsequent bioinformatics analyses were conducted in the Bioinformatics Core Facility of the National Institute for Biotechnology in the Negev, Ltd. (NIBN, Beer-Sheva, Israel). Summarization of bead-level data to gene-level signals was performed using the R package “beadarray” (45) after removal of outliers greater than 3 median absolute deviations (MADs). Between-sample quantile normalization was performed using Partek Genomics Suite (Partek, Inc., St. Louis, Missouri), followed by correction of experimental batch effects (i.e., related to differences in dates of RNA extraction and array processing) using the Partek Batch Remover™ tool. […] Fold change values were presented in linear scale. […] RNA was extracted and full gene expression analysis was preformed."}, "[2]": {"test_system": "GA-primed murine splenocytes"}, "[3]": {"test_system": "GA-primed murine splenocytes", "assay": "Non-parametric Wilcoxon rank sum test GA vs PG", "assay_type": "cell-based, mouse", "description": "Nominal p-values were FDR adjusted and only probes that were less than or equal to 0.05 were considered."}}}
{"substance": "glatiramer acetate [GA]", "values": [{"measurement": "genes up- or down-regulated compared to medium", "setting": "[1]; FDR-adjusted p value <0.05, fold change of 1.3 or more", "value": 1474, "unit": "genes"}, {"measurement": "FOXP3 expression", "setting": "[1]; vs. Medium", "value": "over-expressed"}, {"measurement": "Fold Change CD40", "setting": "[1]; vs. Medium", "value": 1.533}, {"measurement": "Fold Change CD86", "setting": "[1]; vs. Medium", "value": 1.365}, {"measurement": "Fold Change FOXP3", "setting": "[1]; vs. Medium", "value": 1.406}, {"measurement": "Fold Change GATA3", "setting": "[1]; vs. Medium", "value": 1.877}, {"measurement": "Fold Change HLA-DMA", "setting": "[1]; vs. Medium", "value": 1.534}, {"measurement": "Fold Change HLA-DMB", "setting": "[1]; vs. Medium", "value": 1.398}, {"measurement": "Fold Change ICOS", "setting": "[1]; vs. Medium", "value": 2.164}, {"measurement": "Fold Change IFNG", "setting": "[1]; vs. Medium", "value": 16.847}, {"measurement": "Fold Change IFNGR2", "setting": "[1]; vs. Medium", "value": "−1.333"}, {"measurement": "Fold Change IL2", "setting": "[1]; vs. Medium", "value": 2.074}, {"measurement": "Fold Change IL2RA", "setting": "[1]; vs. Medium", "value": 2.457}, {"measurement": "Fold Change IL2RG", "setting": "[1]; vs. Medium", "value": "−1.386"}, {"measurement": "Fold Change IL4", "setting": "[1]; vs. Medium", "value": 4.428}, {"measurement": "Fold Change IL4R", "setting": "[1]; vs. Medium", "value": 1.578}, {"measurement": "Fold Change IL6R", "setting": "[1]; vs. Medium", "value": "−1.545"}, {"measurement": "Fold Change IL10RB", "setting": "[1]; vs. Medium", "value": "−1.323"}, {"measurement": "Fold Change IL12RB1", "setting": "[1]; vs. Medium", "value": 2.270}, {"measurement": "Fold Change IL13", "setting": "[1]; vs. Medium", "value": 1.330}, {"measurement": "Fold Change IL17A", "setting": "[1]; vs. Medium", "value": 1.451}, {"measurement": "Fold Change IL17F", "setting": "[1]; vs. Medium", "value": 2.365}, {"measurement": "Fold Change IL18", "setting": "[1]; vs. Medium", "value": "−1.383"}, {"measurement": "Fold Change IL18R1", "setting": "[1]; vs. Medium", "value": "−1.726"}, {"measurement": "Fold Change TBX21", "setting": "[1]; vs. Medium", "value": 2.654}, {"measurement": "Fold Change TGFBR2", "setting": "[1]; vs. Medium", "value": "−1.436"}, {"measurement": "Fold Change TNF", "setting": "[1]; vs. Medium", "value": 1.475}, {"measurement": "AVG expression CYP2S1", "setting": "[2]", "value": 6.418}, {"measurement": "CD40 expression, GA vs PG", "setting": "[3]", "value": "significantly lower expression"}]}
